From patent US9833448B2, “Piperidinone carboxamide azaindane CGRP receptor antagonists” (Merck Sharp & Dohme Corp., priority 2010, dated 2017)
Counter-ions that a name gives are not always drawn. Like-named read-outs stand apart in the source and are kept apart here. Values belong to the molecule of their own block, whether it stands above or below them. Ends that are not written are not given here.

Assays:
[1] = test system: acute attacks of migraine; conditions: cited from earlier work
[2] = test system: headache induced by CGRP infusion; conditions: control group (Petersen et al. 2005); cited from earlier work
facial blood flow [3] = conditions: marmoset (Doods et al. 2000); cited from earlier work
[4] = target: recombinant human CL receptor/RAMP1 (Homo sapiens (Human), UniProt O60894+Q16602); test: Recombinant receptor binding assay (125I-hCGRP)
recombinant human CL receptor/RAMP1, sequence (Q16602 23-461): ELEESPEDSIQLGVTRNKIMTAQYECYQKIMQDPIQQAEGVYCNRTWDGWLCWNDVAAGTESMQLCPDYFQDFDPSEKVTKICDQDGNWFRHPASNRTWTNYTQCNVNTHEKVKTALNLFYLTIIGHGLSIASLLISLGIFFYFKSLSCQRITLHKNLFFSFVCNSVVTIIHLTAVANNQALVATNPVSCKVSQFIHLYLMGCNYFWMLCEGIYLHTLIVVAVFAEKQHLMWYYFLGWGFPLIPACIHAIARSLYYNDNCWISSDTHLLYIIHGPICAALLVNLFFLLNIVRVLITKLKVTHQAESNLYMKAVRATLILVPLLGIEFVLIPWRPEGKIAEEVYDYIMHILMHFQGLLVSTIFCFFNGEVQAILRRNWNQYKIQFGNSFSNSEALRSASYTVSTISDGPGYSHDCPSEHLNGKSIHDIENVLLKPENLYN
recombinant human CL receptor/RAMP1, sequence (O60894 27-148): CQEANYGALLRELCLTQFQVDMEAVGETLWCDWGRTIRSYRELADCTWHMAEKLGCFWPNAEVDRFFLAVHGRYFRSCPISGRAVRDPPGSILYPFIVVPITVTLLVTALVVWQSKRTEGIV
Experimental: Human CL receptor (Genbank accession number L76380) was subcloned into the expression vector pIREShyg2 (BD Biosciences Clontech) as a 5′NheI and 3′ PmeI fragment. Human RAMP1 (Genbank accession number AJ001014) was subcloned into the expression vector pIRESpuro2 (BD Biosciences Clontech) as a 5′NheI and 3′NotI fragment. HEK 293 cells (human embryonic kidney cells; ATCC #CRL-1573) were cultured in DMEM with 4.5 g/L glucose, 1 mM sodium pyruvate and 2 mM glutamine supplemented with 10% fetal bovine serum (FBS), 100 units/mL penicillin and 100 µg/mL streptomycin, and maintained at 37° C. and 95% humidity. Cells were subcultured by treatment with 0.25% trypsin with 0.1% EDTA in HBSS. Stable cell line generation was accomplished by co-transfecting 10 μg of DNA with 30 μg Lipofectamine 2000 (Invitrogen) in 75 cm^2 flasks. CL receptor and RAMP1 expression constructs were co-transfected in equal amounts. Twenty-four hours after transfection the cells were diluted and selective medium (growth medium+300 μg/mL hygromycin and 1 μg/mL puromycin) was added the following day. A clonal cell line was generated by single cell deposition utilizing a FACS Vantage SE (Becton Dickinson). Growth medium was adjusted to 150 μg/mL hygromycin and 0.5 μg/mL puromycin for cell propagation.
Recombinant Receptor Binding Assay:
The cell suspension was disrupted with a laboratory homogenizer and centrifuged at 48,000 g to isolate membranes. The pellets were resuspended in harvest buffer plus 250 mM sucrose and stored at −70° C. For binding assays, 20 μg of membranes were incubated in 1 mL binding buffer (10 mM HEPES, pH 7.4, 5 mM MgCl2, and 0.2% BSA) for 3 h at room temperature containing 10 pM ^125I-hCGRP (GE Healthcare) and antagonist. The assay was terminated by filtration through 96-well GFB glass fiber filter plates (PerkinElmer) that had been blocked with 0.05% polyethyleneimine. The filters were washed 3 times with ice-cold assay buffer (10 mM HEPES, pH 7.4, and 5 mM MgCl2). Scintillation fluid was added and the plates were counted on a Topcount (Packard). Non-specific binding was determined and the data analysis was carried out with the apparent dissociation constant (Ki) determined by using a non-linear least squares fitting the bound CPM data to the equation below:
[formula] Where Y is observed CPM bound, Ymax is total bound counts, Ymin is non specific bound counts, (Ymax−Ymin) is specific bound counts, % Imax is the maximum percent inhibition, % I min is the minimum percent inhibition, radiolabel is the probe, and the Kd is the apparent dissociation constant for the radioligand for the receptor as determined by hot saturation experiments.

middle meningeal artery = conditions: rats, prior administration (Williamson et al. 1997); cited from earlier work
facial blood flow [5] = conditions: rat (Escott et al. 1995); cited from earlier work
[6] = exemplary compounds of the invention, 10 pM 125I-hCGRP, membranes of HEK 293 cells, read-out: Ki
[7] = analogues disclosed in U.S. Pat. No. 7,390,798 and US 2010/0179166, read-out: Ki (CGRP binding data)

Molecule: NCCCC[C@H](NC(=O)[C@@H](Cc1cc(Br)c(O)c(Br)c1)NC(=O)N1CCC(N2Cc3ccccc3NC2=O)CC1)C(=O)N1CCN(c2ccncc2)CC1 [BIBN4096BS]
effectiveness in treating acute attacks of migraine ([1]; clinical trials (Olesen et al. 2004)): effective in treating acute attacks of migraine
prevention of headache induced by CGRP infusion [2]: able to prevent headache induced by CGRP infusion
effect on increase in facial blood flow (facial blood flow [3]): could be blocked

Ki [4, 6]: 0.067 nM
Molecule: C[C@@H]1[C@H](c2ccccc2)C[C@H](NC(=O)c2cnc3c(c2)C[C@@]2(C3)C(=O)Nc3ncccc32)C(=O)N1CC(F)(F)F [Example 1, (6S)—N-[(3S,5S,6R)-6-Methyl-2-oxo-5-phenyl-1-(2,2,2-trifluoroethyl)piperidin-3-yl]-2′-oxo-1′,2′,5,7-tetrahydrospiro[cyclopenta[b]pyridine-6,3′-pyrrolo[2,3-b]pyridine]-3-carboxamide]

Ki [4, 6]: 0.067 nM
Molecule: Cc1ccccc1[C@@H]1C[C@H](NC(=O)c2cnc3c(c2)C[C@@]2(C3)C(=O)Nc3ncccc32)C(=O)N(CC(F)(F)F)[C@@H]1C [Example 3, (6S)—N-[(3 S,5S,6R)-6-Methyl-5-(2-methylphenyl)-2-oxo-1-(2,2,2-trifluoroethyl)piperidin-3-yl]-2′-oxo-1′,2′,5,7-tetrahydrospiro[cyclopenta[b]pyridine-6,3′-pyrrolo[2,3-b]pyridine]-3-carboxamide]

Molecule: C[C@@H]1[C@H](c2cc(F)cc(F)c2F)C[C@H](NC(=O)c2cnc3c(c2)C[C@@]2(C3)C(=O)Nc3ncccc32)C(=O)N1CC(F)(F)F [Example 5, (6S)—N-[(3S,5S,6R)-6-Methyl-2-oxo-1-(2,2,2-trifluoroethyl)-5-(2,3,5-trifluorophenyl)piperidin-3-yl]-2′-oxo-1′,2′,5,7-tetrahydrospiro[cyclopenta[b]pyridine-6,3′-pyrrolo[2,3-b]pyridine]-3-carboxamide dihydrochloride]
Ki [4, 6]: 0.017 nM

Ki [4, 6]: 0.21 nM
Molecule: O=C(N[C@H]1C[C@@H](c2ccccc2F)CN(CC(F)(F)F)C1=O)c1cnc2c(c1)C[C@@]1(C2)C(=O)Nc2ncccc21 [Example 6]

Ki [4, 7]: 7.4 nM
Molecule: CN1C[C@H](c2cccc(F)c2F)CC[C@@H](NC(=O)c2ccc3c(c2)CC2(C3)C(=O)Nc3ncccc32)C1=O (stereo partly drawn) [Example 8 from U.S. Pat. No. 7,390,798]

Ki [4, 7]: 4.3 nM
Molecule: CC(C)(O)c1cnc2n1C[C@H](c1cccc(F)c1F)CC[C@H]2NC(=O)c1cc2c(cn1)CC1(C2)C(=O)Nc2ncccc21 (stereo partly drawn) [Example 8 from US 2010/0179166]

Ki [4, 7]: 1.9 nM
Molecule: O=C(N[C@@H]1CC[C@@H](c2cccc(F)c2F)CN(CC(F)(F)F)C1=O)c1ccc2c(c1)CC1(C2)C(=O)Nc2ncccc21 (stereo partly drawn) [Example 9 from U.S. Pat. No. 7,390,798]

Ki [4, 7]: 1.7 nM
Molecule: CC(C)(O)CN1C[C@H](c2cccc(F)c2F)CC[C@@H](NC(=O)c2ccc3c(c2)CC2(C3)C(=O)Nc3ncccc32)C1=O (stereo partly drawn) [Example 10 from U.S. Pat. No. 7,390,798]

Ki [4, 6]: 0.25 nM
Molecule: O=C(N[C@H]1C[C@@H](c2c(F)cccc2Cl)CN(CC(F)(F)F)C1=O)c1cnc2c(c1)C[C@@]1(C2)C(=O)Nc2ncccc21 [Example 11]

Ki [4, 6]: 0.055 nM
Molecule: O=C(N[C@H]1C[C@@H](c2cccc(F)c2F)CN(CC2CCC2)C1=O)c1cnc2c(c1)C[C@@]1(C2)C(=O)Nc2ncccc21 [Example 17]

Ki [4, 6]: 0.14 nM
Molecule: C[C@@H]1[C@H](c2ccccc2)C[C@H](NC(=O)c2cnc3c(c2)C[C@@]2(C3)C(=O)Nc3ncc(C#N)cc32)C(=O)N1CC(F)(F)F [Example 30]

Ki [4, 6]: 0.17 nM
Molecule: C[C@@H]1[C@H](c2ccccc2)C[C@H](NC(=O)c2cnc3c(c2)C[C@@]2(C3)C(=O)Nc3ncncc32)C(=O)N1CC(F)(F)F [Example 31]

Molecule: O=C(N[C@@H]1CC[C@@H](c2cccc(F)c2F)CN(CC(F)(F)F)C1=O)N1CCC(n2c(=O)[nH]c3ncccc32)CC1 [telcagepant]
antimigraine effectiveness ([1]; phase III clinical trials, orally bioavailable): shown antimigraine effectiveness

Molecule: CGRP (8-37) (VTHRLAGLLSRSGGVVKNNFVPTNVGSKAF; ends and bridges not checked; UniProt P06881 90-119, looked up, fragment) [a peptide CGRP receptor antagonist]
effect on increase of middle meningeal artery diameter (middle meningeal artery): blocked
effect on increased facial blood flow (facial blood flow [5]): inhibited
